Test results as given in US20250034216A1, “STEREOSELECTIVE COVALENT LIGANDS FOR ONCOGENIC AND IMMUNOLOGICAL PROTEINS” (The Scripps Research Institute, priority 2021, published 2025).

What was measured:
Assay in all cases: IA-DTB cysteine engagement
Assay type in all cases: binding
Details in all cases: 22Rv1 cells, 20 μM probe, 1 h, relative to DMSO
DHRS13_C174 = target: T1, DHRS13_C174 (Homo sapiens, UniProt Q6UX07)
T1 construct: endogenous in cells; host or cells: 22Rv1
T1 sequence (Q6UX07 26-377): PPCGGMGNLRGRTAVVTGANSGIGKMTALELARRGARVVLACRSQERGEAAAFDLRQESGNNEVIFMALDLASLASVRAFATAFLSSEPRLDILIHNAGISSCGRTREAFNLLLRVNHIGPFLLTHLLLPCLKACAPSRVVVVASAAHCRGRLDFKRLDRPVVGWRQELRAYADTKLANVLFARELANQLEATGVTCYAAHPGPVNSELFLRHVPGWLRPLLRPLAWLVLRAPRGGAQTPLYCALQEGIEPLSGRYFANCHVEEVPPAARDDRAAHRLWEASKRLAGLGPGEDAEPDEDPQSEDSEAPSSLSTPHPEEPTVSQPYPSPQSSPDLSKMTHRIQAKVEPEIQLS
Experimental: (§1) Sample preparation: Cells (adherent: 15 cm dishes, suspension: 2 million cells/mL) were treated with electrophilic probes in situ for indicated times and concentrations, washed with ice-cold PBS, and flash frozen in liquid nitrogen. Cell pellets were lysed by sonication (8 pulses, 40% power) in 500 μL ice-cold PBS supplemented with cOmplete protease inhibitors (1 tablet/10 mL of PBS). Whole cell lysates protein content was measured using a standard DC protein assay (Bio-Rad) and 500 μL (2 mg/mL protein content) were treated with 5 μL of 10 mM 1A-DTB (in DMSO) for 1 h at ambient temperature with occasional vortexing. Samples were methanol-chloroform precipitated with the addition of 500 μL ice-cold MeOH and 200 μL CHCl3, vortexed, and centrifuged (10 min, 10,000 g). Without disrupting the protein disk, both top and bottom layers were aspirated and the protein disk was washed with 1 mL ice-cold MeOH and centrifuged (10 min, 10,000 g). The pellets were allowed to air dry, and then re-suspended in 90 μL buffer (9 M urea, 10 mM DTT, 50 mM TEAB pH 8.5). Samples were reduced by heating at 65 C for 20 minutes and water bath sonicated as needed to resuspend the protein pellets, followed by alkylation via addition of 10 μL (500 mM) iodoacetamide and incubated at 37 C for 30 min with shaking. Samples were briefly centrifuged, and probe sonicated once more to ensure complete resuspension, and then diluted with 300 μL buffer (50 mM TEAB pH 8.5) to reach final concentration of 2 M urea. Trypsin (4 μL of 0.25 μg/μL in trypsin resuspension buffer with 25 mM CaCl2)) was added to each sample and digested at 37 C for 2 h to overnight. Digested samples were then diluted with 300 μL wash buffer (50 mM TEAB pH 8.5, 150 mM NaCl, 0.2% NP-40) containing streptavidin-agarose beads (50 μL of 50% slurry in wash buffer) and were rotated at room temperature for 2 hours. Enriched samples were pelleted by centrifugation (2000 g, 2 min) and transferred to BioSpin columns and washed (3×1 mL wash buffer, 3×1 mL PBS, 3×1 mL water). Enriched peptides were eluted by 300 μL 50% acetonitrile with 0.1% formic acid and eluate was evaporated to dryness via speedvac. IA-DTB labeled and enriched peptides were resuspended in 100 μL EPPS buffer (200 mM, pH 8.0) with 30% acetonitrile, vortexed, and water bath sonicated. Samples were TMT labeled with 3 μL of corresponding TMT tag (5 mg tag resuspended in 256 μL acetonitrile), vortexed, and incubated at room temperature for 1 hour. TMT labeling was quenched with the addition of hydroxylamine (5 μL 5% solution in H2O) and incubated for 15 minutes at room temperature. Samples were then acidified with 5 μL formic acid, combined and dried using a SpeedVac. Samples were desalted via Sep-Pak and then high pH fractionated.
(§2) Data processing: Cysteine engagement ratios (probe vs DMSO) were calculated for each peptide-spectra match by dividing each TMT reporter ion intensity by the average intensity for the channels corresponding to DMSO treatment. Peptide-spectra matches were then grouped based on protein ID and residue number (e.g., PSME1 C22), excluding peptides with summed reporter ion intensities for the DMSO channels <10,000, coefficient of variation for DMSO channels >0.5, and non-tryptic peptide sequences. TMT reporter ion intensities were normalized to the median summed signal intensity across channels.
(§3) Filtering of cysteine data: Replicates were combined based on cell line and treatment condition (probe, concentration, duration) by averaging cysteine engagement ratios across all experiments.

HARS2_C175 = target: T2, HARS2_C175 (Homo sapiens, UniProt P49590)
T2 construct: endogenous in cells; host or cells: 22Rv1
T2 sequence (P49590 34-506): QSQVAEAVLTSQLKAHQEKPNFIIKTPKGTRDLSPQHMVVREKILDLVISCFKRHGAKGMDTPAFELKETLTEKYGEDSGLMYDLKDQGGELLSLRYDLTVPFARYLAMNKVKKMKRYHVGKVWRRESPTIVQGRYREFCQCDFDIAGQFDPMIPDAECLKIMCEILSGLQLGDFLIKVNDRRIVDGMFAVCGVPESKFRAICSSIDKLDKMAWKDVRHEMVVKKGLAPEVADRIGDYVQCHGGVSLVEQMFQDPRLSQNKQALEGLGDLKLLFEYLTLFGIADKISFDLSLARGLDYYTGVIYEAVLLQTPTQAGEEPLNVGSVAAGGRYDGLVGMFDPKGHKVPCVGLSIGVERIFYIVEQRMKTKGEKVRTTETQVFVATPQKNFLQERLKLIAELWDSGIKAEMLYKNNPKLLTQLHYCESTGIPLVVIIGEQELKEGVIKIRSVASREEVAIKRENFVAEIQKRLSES
Experimental: as §1, §2, §3

STRBP_C142 = target: T3, STRBP_C142 (Homo sapiens, UniProt Q96SI9)
T3 construct: endogenous in cells; host or cells: 22Rv1
T3 sequence (Q96SI9 1-672): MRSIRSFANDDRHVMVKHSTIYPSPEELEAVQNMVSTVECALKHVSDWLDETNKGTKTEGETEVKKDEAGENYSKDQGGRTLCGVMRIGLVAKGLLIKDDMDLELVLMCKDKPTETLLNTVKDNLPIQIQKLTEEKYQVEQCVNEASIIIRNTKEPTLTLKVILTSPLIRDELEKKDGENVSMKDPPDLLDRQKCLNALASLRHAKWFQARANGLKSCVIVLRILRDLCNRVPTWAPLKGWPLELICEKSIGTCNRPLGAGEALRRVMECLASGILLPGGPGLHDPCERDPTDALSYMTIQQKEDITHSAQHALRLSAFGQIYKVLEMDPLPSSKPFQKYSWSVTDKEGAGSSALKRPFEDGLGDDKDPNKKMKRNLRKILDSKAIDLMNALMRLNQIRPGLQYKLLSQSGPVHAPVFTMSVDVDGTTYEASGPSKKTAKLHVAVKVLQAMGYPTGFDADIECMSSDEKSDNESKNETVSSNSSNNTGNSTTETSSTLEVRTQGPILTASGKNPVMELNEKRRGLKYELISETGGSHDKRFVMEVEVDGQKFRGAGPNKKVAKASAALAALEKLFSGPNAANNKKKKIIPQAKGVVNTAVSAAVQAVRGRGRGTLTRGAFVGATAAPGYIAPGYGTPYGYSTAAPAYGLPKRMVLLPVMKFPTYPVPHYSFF
Experimental: as §1, §2, §3

C=CC(=O)N1C[C@@H](c2ccc(Br)cc2)[C@H]1C(=O)Nc1cccc2cccnc12 [MY-1A, (2S,3R)-1-acryloyl-3-(4-bromophenyl)-N-(quinolin-8-yl)azetidine-2-carboxamide]
% engagement DHRS13_C174 (DHRS13_C174): 60.25%
% engagement HARS2_C175 (HARS2_C175): 100%
% engagement STRBP_C142 (STRBP_C142): 88.25%

C=CC(=O)N1C[C@H](c2ccc(Br)cc2)[C@@H]1C(=O)Nc1cccc2cccnc12 [MY-1B, (2R,3S)-1-acryloyl-3-(4-bromophenyl)-N-(quinolin-8-yl)azetidine-2-carboxamide]
% engagement DHRS13_C174 (DHRS13_C174): 69.75%
% engagement HARS2_C175 (HARS2_C175): 67%
% engagement STRBP_C142 (STRBP_C142): 8.5%

C=CC(=O)N1C[C@H](c2ccc(Br)cc2)[C@H]1C(=O)Nc1cccc2cccnc12 [MY-3A, (2S,3S)-1-acryloyl-3-(4-bromophenyl)-N-(quinolin-8-yl)azetidine-2-carboxamide]
% engagement DHRS13_C174 (DHRS13_C174): 42%
% engagement HARS2_C175 (HARS2_C175): 11.5%
% engagement STRBP_C142 (STRBP_C142): 16.25%

C=CC(=O)N1C[C@H](c2ccc(Br)cc2)[C@H]1C(=O)Nc1cccc2cccnc12 [MY-3B, (2S,3S)-1-acryloyl-3-(4-bromophenyl)-N-(quinolin-8-yl)azetidine-2-carboxamide]
% engagement DHRS13_C174 (DHRS13_C174): 61.75%
% engagement HARS2_C175 (HARS2_C175): 44.5%
% engagement STRBP_C142 (STRBP_C142): 7.75%
